# In the NIST ThermoML archive (doi:10.1021/je5001389):
# Numbers after ± are expanded uncertainties.
# Tests used:
# [1] = DTA
# [2] = Molar enthalpy of transition or fusion; settings: DSC
Triple point temperature ([1]; Crystal 1) [K],Triple point temperature ([1]; Crystal 2) [K],Molar enthalpy of transition or fusion ([2]; Crystal 1) [kcal/mol],Molar enthalpy of transition or fusion ([2]; Crystal 2) [kcal/mol],SMILES,Triple point temperature ([1]; Crystal) [K],Molar enthalpy of transition or fusion ([2]; Crystal) [kcal/mol]
–,–,–,–,c1ccc(-c2ccccc2)cc1 [biphenyl],340.69 ± 0.5,4.45 ± 0.136
–,–,–,–,c1ccc2c(c1)oc1ccccc12 [dibenzo[bd]furan],353.87 ± 0.5,5.33 ± 0.16
329.21 ± 0.5,326.4 ± 0.5,16.3 ± 0.43,8.78 ± 0.239,CCCCCCCCCCCCCCCCCCCCCCCCCC [hexacosane],–,–
